Experimental findings from ChEMBL document CHEMBL1148466, “Self-association of okadaic acid upon complexation with potassium ion” (J Med Chem, 2004) are described below.

The structures appear in SMILES notation.

Assay [1] deals with Serine/threonine-protein phosphatase PP1-gamma catalytic subunit (Homo sapiens, UniProt P36873). Description: Inhibitory activity against serine/threonine protein phosphatase 1(PP1).
Assay [2] is described as follows: Inhibitory activity against serine/threonine protein phosphatase 2 (PP2A).

One may read the IC50 as the concentration that gives 50% inhibition. Read a low IC50 as greater potency in that assay.

Serine/threonine-protein phosphatase PP1-gamma catalytic subunit, sequence (P36873 whole entry): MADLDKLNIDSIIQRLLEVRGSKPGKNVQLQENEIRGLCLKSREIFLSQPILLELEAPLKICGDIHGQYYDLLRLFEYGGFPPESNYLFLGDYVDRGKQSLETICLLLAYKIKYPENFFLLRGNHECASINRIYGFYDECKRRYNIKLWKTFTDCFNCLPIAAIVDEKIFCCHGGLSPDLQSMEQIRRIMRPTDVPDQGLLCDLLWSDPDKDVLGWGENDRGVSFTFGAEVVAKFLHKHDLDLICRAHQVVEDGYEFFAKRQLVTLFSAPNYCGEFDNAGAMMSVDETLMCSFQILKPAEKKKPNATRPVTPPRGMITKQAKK

For the compound `C=C1[C@@H](O)[C@@H]2O[C@]3(CC[C@H](/C=C/[C@@H](C)[C@@H]4CC(C)=C[C@@]5(O[C@H](C[C@@](C)(O)C(=O)O)CC[C@H]5O)O4)O3)CC[C@H]2O[C@@H]1[C@@H](O)C[C@H](C)[C@H]1O[C@@]2(CCCCO2)CC[C@H]1C` [OKADAIC ACID], the IC50 came out at 20 nM in assay [1] and 0.2 nM in assay [2].
